*1 amine or outer side, *2 acyl side, *3 side chain or, on linkers, in order; H or OH if unused. Where a SMILES comes first, the peptide text is derived from it. [ ]: non-standard residue; d: D form. X1 = O=C([C@H]1CCC[C@@H]1N[*:1])[*:2]; X2 = O=C([C@H]1CNC[C@@H]1N[*:1])[*:2]; Aib = CC(C)(N)C(=O)O
Key:
[1] = molecular target: Human GLP-1R (glucagon-like peptide-1 receptor) (human) (UniProt P43220)
GLP-1R [2] = molecular target: T1, GLP-1R (Homo sapiens, UniProt P43220); assay: β-arrestin-1 recruitment BRET^2 assay; settings: for Emax: HEK293FT, read-out: β-Arrestin-1 Max Response (% GLP-1)
T1 sequence (P43220 24-463): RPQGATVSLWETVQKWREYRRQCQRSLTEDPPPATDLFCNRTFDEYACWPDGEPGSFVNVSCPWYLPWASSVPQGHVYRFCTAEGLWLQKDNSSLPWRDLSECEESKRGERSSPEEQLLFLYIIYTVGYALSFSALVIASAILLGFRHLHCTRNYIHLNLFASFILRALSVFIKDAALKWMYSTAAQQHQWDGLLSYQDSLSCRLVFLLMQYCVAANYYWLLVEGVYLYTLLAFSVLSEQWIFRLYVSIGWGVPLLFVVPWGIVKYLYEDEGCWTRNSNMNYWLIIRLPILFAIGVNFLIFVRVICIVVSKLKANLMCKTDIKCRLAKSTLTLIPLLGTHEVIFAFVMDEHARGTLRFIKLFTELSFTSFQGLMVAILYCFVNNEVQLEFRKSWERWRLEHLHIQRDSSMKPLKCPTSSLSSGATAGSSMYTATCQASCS

GLP-1R [3] = molecular target: T1, GLP-1R; settings: within the concentration range examined (up to 1 µM)
GLP-1R [4] = molecular target: T1, GLP-1R; assay: cell-based; settings: HEK293FT, read-out: β-Arrestin-2 Max Response (% GLP-1)
GLP-1R [5] = molecular target: T1, GLP-1R; assay: GloSensor cAMP reporter assay; format: cell-based; settings: read-out: cAMP Max Response (% GLP-1)
[6] = previous studies; cited from earlier work
mouse pancreatic islets = settings: cited from earlier work

Human GLP-1R (glucagon-like peptide-1 receptor) (human), sequence (P43220 24-463): as above

Molecule	cAMP production (GloSensor reporter cells), pEC50 [1]	Emax (GLP-1R [2]) [%]	β-arrestin-1 recruitment, result in words (GLP-1R [2]; within the concentration range examined (up to 1 µM))	β-arrestin-2 recruitment, result in words (GLP-1R [3])	Emax (GLP-1R [4]) [%]	Emax (GLP-1R [5]) [%]	control of blood glucose in vivo [6]	duration of glucose control relative to GLP-1 [6]	insulin secretagogue activity compared with GLP-1 (mouse pancreatic islets)
GLP-1(7–36)NH2 (peptide)	-10.3 pEC50 (M)								
CC[C@H](C)[C@H](NC(=O)[C@H](Cc1ccccc1)NC(=O)[C@H](CCC(=O)O)NC(=O)[C@H]1CNC[C@@H]1NC(=O)[C@H](C)NC(=O)[C@H](C)NC(=O)[C@H](CCC(N)=O)NC(=O)[C@H]1CCC[C@@H]1NC(=O)[C@H](CCC(=O)O)NC(=O)[C@H](CC(C)C)NC(=O)[C@H](Cc1ccc(O)cc1)NC(=O)[C@H]1CCC[C@@H]1NC(=O)[C@H](CO)NC(=O)C(C)(C)NC(=O)[C@H](CC(=O)O)NC(=O)[C@H](CO)NC(=O)[C@@H](NC(=O)[C@H](Cc1ccccc1)NC(=O)[C@@H](NC(=O)CNC(=O)[C@H](CCC(=O)O)NC(=O)C(C)(C)NC(=O)[C@@H](N)Cc1c[nH]cn1)[C@@H](C)O)[C@@H](C)O)C(=O)N[C@H]1CCC[C@@H]1C(=O)N[C@@H](Cc1c[nH]c2ccccc12)C(=O)N[C@@H](CC(C)C)C(=O)N[C@H](C(=O)N[C@H]1CNC[C@@H]1C(=O)NCC(=O)N[C@@H](CCCNC(=N)N)C(=O)NCC(N)=O)C(C)C [α/β-Peptide 4] (H-H[Aib]EGTFTSD[Aib]S[X1]YLE[X1]QAA[X2]EFI[X1]WLV[X2]GRG-NH2)		6 ± 8	no significant recruitment	no significant recruitment	13 ± 4	60 ± 5	can control blood glucose in vivo	prolonged	indistinguishable
CC[C@H](C)[C@H](NC(=O)[C@H](Cc1ccccc1)NC(=O)[C@H](CCC(=O)O)NC(=O)[C@H]1CNC[C@@H]1NC(=O)[C@H](C)NC(=O)[C@H](C)NC(=O)[C@H](CCC(N)=O)NC(=O)[C@H]1CCC[C@@H]1NC(=O)[C@H](CCC(=O)O)NC(=O)[C@H](CC(C)C)NC(=O)[C@H](Cc1ccc(O)cc1)NC(=O)[C@H]1CCC[C@@H]1NC(=O)[C@H](CO)NC(=O)C(C)(C)NC(=O)[C@H](CC(=O)O)NC(=O)[C@H](CO)NC(=O)[C@@H](NC(=O)[C@H](Cc1ccccc1)NC(=O)[C@@H](NC(=O)CNC(=O)[C@H](CCC(=O)O)NC(=O)[C@H](C)NC(=O)[C@@H](N)Cc1c[nH]cn1)[C@@H](C)O)[C@@H](C)O)C(=O)N[C@@H](C)C(=O)N[C@@H](Cc1c[nH]c2ccccc12)C(=O)N[C@@H](CC(C)C)C(=O)N[C@H](C(=O)N[C@@H](CCCCN)C(=O)NCC(=O)N[C@@H](CCCNC(=N)N)C(=O)NCC(N)=O)C(C)C [α/β-Peptide 9] (H-HAEGTFTSD[Aib]S[X1]YLE[X1]QAA[X2]EFIAWLVKGRG-NH2)		41 ± 4			59 ± 2	97 ± 2			
CC[C@H](C)[C@H](NC(=O)[C@H](Cc1ccccc1)NC(=O)[C@H](CCC(=O)O)NC(=O)[C@H]1CNC[C@@H]1NC(=O)[C@H](C)NC(=O)[C@H](C)NC(=O)[C@H](CCC(N)=O)NC(=O)CNC(=O)[C@H](CCC(=O)O)NC(=O)[C@H](CC(C)C)NC(=O)[C@H](Cc1ccc(O)cc1)NC(=O)[C@H]1CCC[C@@H]1NC(=O)[C@H](CO)NC(=O)[C@@H](NC(=O)[C@H](CC(=O)O)NC(=O)[C@H](CO)NC(=O)[C@@H](NC(=O)[C@H](Cc1ccccc1)NC(=O)[C@@H](NC(=O)CNC(=O)[C@H](CCC(=O)O)NC(=O)[C@H](C)NC(=O)[C@@H](N)Cc1c[nH]cn1)[C@@H](C)O)[C@@H](C)O)C(C)C)C(=O)N[C@@H](C)C(=O)N[C@@H](Cc1c[nH]c2ccccc12)C(=O)N[C@@H](CC(C)C)C(=O)N[C@H](C(=O)N[C@@H](CCCCN)C(=O)NCC(=O)N[C@@H](CCCNC(=N)N)C(=O)NCC(N)=O)C(C)C [α/β-Peptide 13] (H-HAEGTFTSDVS[X1]YLEGQAA[X2]EFIAWLVKGRG-NH2)		80 ± 3			74 ± 4	104 ± 1			
CC[C@H](C)[C@H](NC(=O)[C@H](Cc1ccccc1)NC(=O)[C@H](CCC(=O)O)NC(=O)[C@H]1CNC[C@@H]1NC(=O)[C@H](C)NC(=O)[C@H](C)NC(=O)[C@H](CCC(N)=O)NC(=O)CNC(=O)[C@H](CCC(=O)O)NC(=O)[C@H](CC(C)C)NC(=O)[C@H](Cc1ccc(O)cc1)NC(=O)[C@H](CO)NC(=O)[C@H](CO)NC(=O)[C@@H](NC(=O)[C@H](CC(=O)O)NC(=O)[C@H](CO)NC(=O)[C@@H](NC(=O)[C@H](Cc1ccccc1)NC(=O)[C@@H](NC(=O)CNC(=O)[C@H](CCC(=O)O)NC(=O)[C@H](C)NC(=O)[C@@H](N)Cc1c[nH]cn1)[C@@H](C)O)[C@@H](C)O)C(C)C)C(=O)N[C@H]1CCC[C@@H]1C(=O)N[C@@H](Cc1c[nH]c2ccccc12)C(=O)N[C@@H](CC(C)C)C(=O)N[C@H](C(=O)N[C@H]1CNC[C@@H]1C(=O)NCC(=O)N[C@@H](CCCNC(=N)N)C(=O)NCC(N)=O)C(C)C [α/β-Peptide 1] (H-HAEGTFTSDVSSYLEGQAA[X2]EFI[X1]WLV[X2]GRG-NH2)		88 ± 6			78 ± 4	101 ± 1			
CC[C@H](C)[C@H](NC(=O)[C@H](Cc1ccccc1)NC(=O)[C@H](CCC(=O)O)NC(=O)[C@H]1CNC[C@@H]1NC(=O)[C@H](C)NC(=O)[C@H](C)NC(=O)[C@H](CCC(N)=O)NC(=O)[C@H]1CCC[C@@H]1NC(=O)[C@H](CCC(=O)O)NC(=O)[C@H](CC(C)C)NC(=O)[C@H](Cc1ccc(O)cc1)NC(=O)[C@H]1CCC[C@@H]1NC(=O)[C@H](CO)NC(=O)[C@@H](NC(=O)[C@H](CC(=O)O)NC(=O)[C@H](CO)NC(=O)[C@@H](NC(=O)[C@H](Cc1ccccc1)NC(=O)[C@@H](NC(=O)CNC(=O)[C@H](CCC(=O)O)NC(=O)[C@H](C)NC(=O)[C@@H](N)Cc1c[nH]cn1)[C@@H](C)O)[C@@H](C)O)C(C)C)C(=O)N[C@@H](C)C(=O)N[C@@H](Cc1c[nH]c2ccccc12)C(=O)N[C@@H](CC(C)C)C(=O)N[C@H](C(=O)N[C@@H](CCCCN)C(=O)NCC(=O)N[C@@H](CCCNC(=N)N)C(=O)NCC(N)=O)C(C)C [α/β-Peptide 8] (H-HAEGTFTSDVS[X1]YLE[X1]QAA[X2]EFIAWLVKGRG-NH2)		43 ± 3			63 ± 5	96 ± 1			
